Experimental data reported in patent US20260209193A1, “NOVEL INHIBITORS OF DNA DAMAGE RESPONSES FOR CANCER THERAPY” (The Regents of the University of California, priority 2022, published 2026).

What was measured:
ATR = molecular target: T1, ATR (Homo sapiens, UniProt Q13535); experiment: ATR-mediated signaling: phosphorylation of Rad17 Ser 645 and CHK1 Ser 345 in cells; type: cell-based; settings: for ATR inhibition potency relative to JC099 (OLA- or UV-induced phosphorylation of Rad17 and CHK1): compared to JC099
T1 construct: endogenous in cells; host or cells: PC3, C4-2B/MR, SUM149PT-BRCA1rev, UWB1.289+BRCA1, MDA-MB-231
T1 sequence (Q13535 whole entry): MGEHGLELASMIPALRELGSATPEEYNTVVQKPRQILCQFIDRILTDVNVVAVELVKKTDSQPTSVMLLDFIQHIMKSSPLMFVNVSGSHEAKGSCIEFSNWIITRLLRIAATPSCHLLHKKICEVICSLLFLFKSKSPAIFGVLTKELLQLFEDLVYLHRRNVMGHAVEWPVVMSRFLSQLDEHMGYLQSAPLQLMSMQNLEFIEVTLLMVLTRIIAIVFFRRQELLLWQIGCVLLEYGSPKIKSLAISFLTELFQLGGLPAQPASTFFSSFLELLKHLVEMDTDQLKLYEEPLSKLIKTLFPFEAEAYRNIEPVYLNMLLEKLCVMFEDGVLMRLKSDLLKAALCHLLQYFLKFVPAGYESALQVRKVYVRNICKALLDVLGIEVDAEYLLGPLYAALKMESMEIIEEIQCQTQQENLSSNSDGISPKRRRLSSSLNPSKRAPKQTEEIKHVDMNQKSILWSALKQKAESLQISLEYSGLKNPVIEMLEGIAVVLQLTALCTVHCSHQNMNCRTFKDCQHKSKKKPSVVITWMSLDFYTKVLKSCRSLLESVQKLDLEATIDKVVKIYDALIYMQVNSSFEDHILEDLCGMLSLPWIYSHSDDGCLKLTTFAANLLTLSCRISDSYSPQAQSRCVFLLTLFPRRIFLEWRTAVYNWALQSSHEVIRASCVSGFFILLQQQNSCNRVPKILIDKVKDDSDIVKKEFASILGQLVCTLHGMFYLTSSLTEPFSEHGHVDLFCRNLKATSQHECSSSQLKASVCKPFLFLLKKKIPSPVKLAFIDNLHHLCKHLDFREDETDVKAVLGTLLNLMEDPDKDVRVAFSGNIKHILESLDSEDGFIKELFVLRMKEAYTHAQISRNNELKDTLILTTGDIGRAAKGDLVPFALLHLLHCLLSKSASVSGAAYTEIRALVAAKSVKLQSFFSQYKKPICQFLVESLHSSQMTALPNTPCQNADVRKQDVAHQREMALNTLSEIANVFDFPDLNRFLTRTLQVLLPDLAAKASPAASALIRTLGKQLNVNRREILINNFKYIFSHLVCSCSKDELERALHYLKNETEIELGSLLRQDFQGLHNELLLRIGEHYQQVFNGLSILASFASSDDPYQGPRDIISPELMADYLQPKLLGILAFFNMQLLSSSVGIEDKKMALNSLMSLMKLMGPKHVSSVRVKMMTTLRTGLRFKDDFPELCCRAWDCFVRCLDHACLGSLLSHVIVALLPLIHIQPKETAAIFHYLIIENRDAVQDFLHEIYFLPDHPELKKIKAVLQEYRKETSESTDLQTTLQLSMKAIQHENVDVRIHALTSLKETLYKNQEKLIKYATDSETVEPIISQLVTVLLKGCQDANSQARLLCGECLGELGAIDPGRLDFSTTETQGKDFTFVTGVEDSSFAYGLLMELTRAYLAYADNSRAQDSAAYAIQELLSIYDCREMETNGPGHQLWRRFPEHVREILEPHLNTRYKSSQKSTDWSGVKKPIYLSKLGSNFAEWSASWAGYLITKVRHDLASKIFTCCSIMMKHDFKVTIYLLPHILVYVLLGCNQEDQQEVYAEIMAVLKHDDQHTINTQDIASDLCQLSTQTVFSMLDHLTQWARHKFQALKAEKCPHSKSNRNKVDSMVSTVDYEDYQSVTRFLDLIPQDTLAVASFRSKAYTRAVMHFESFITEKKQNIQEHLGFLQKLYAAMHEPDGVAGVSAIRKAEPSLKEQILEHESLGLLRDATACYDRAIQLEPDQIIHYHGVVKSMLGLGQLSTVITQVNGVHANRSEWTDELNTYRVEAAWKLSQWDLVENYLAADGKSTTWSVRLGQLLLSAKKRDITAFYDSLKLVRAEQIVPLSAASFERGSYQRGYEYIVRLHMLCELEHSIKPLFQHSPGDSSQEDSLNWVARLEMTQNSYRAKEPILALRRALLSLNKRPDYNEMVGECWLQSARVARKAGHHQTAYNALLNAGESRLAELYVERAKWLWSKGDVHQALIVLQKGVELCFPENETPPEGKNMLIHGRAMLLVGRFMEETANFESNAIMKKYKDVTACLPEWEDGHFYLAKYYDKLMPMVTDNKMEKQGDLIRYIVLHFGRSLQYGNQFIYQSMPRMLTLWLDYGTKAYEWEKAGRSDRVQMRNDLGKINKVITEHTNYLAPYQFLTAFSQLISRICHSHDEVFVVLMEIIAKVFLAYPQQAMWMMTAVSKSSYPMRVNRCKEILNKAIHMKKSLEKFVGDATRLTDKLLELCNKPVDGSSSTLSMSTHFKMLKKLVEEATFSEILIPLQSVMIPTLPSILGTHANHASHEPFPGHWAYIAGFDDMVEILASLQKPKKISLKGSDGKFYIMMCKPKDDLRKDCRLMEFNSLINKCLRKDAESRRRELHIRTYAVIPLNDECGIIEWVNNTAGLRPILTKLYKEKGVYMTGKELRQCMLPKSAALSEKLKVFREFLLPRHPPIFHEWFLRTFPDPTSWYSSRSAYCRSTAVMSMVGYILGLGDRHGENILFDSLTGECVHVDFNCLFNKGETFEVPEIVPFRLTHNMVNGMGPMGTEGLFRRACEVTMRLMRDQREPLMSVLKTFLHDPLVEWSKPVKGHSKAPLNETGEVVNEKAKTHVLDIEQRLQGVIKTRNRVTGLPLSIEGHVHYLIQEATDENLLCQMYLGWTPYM
T1 sequence (Q8WXE1 whole entry partner): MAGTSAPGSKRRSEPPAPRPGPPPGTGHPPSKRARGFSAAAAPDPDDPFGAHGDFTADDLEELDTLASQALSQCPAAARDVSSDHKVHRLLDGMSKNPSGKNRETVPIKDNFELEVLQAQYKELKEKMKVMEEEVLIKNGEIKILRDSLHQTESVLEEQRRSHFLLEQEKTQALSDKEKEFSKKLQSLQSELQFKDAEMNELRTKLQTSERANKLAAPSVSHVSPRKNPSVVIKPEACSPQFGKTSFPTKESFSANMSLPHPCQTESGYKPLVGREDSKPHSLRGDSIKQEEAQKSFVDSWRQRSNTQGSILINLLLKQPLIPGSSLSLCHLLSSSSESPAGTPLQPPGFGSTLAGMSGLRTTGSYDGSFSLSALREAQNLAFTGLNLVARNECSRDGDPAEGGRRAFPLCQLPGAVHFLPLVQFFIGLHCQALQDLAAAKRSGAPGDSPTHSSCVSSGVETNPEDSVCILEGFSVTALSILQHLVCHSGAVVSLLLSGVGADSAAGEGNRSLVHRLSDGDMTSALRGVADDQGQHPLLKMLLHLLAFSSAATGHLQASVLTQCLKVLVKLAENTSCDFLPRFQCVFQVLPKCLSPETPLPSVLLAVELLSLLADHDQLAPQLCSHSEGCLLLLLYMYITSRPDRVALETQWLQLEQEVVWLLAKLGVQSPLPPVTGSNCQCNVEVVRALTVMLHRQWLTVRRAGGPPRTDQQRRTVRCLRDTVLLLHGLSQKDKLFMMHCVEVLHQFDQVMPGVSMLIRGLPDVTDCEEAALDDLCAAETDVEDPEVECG
Procedure: PARP inhibitor-resistant cells are increasingly dependent on ATR for survival, and ATR inhibition disrupts restored HR and fork protection pathways in PARP inhibitor resistant BRCA-deficient cancer cells. For ATR kinase in vitro assays, ATR was immunoprecipitated with 3 μg of anti-ATR antibody (Bethyl Laboratories, A300-137A) from 1 mg of cell lysate. […] The IC50 was determined by the enzyme profiling service of Eurofins Cerep (France). […] The phosphorylation of CHK1 at Ser 345 sites was used as a bio-marker of ATR-mediated signaling pathway. The phosphorylation of Rad17 at Ser 645, which is a substrate of ATR, was also examined.
ATR inhibition was assessed in C4-2B/MR cells. Considering ATM is a homologous protein of ATR, we also detected the effect of JC046 analogs on the phosphorylation of KAP1 at Ser 824 and CHK2 at Thr 68 sites, which were used as markers of ATM signaling pathway.

PARP1 = molecular target: T2, PARP1 (Homo sapiens, UniProt P09874); experiment: PARP1 trapping, chromatin fractionation (chromatin-bound fraction); type: cell-based
T2 construct: endogenous in cells; host or cells: PC3
T2 sequence (P09874 whole entry, species assumed): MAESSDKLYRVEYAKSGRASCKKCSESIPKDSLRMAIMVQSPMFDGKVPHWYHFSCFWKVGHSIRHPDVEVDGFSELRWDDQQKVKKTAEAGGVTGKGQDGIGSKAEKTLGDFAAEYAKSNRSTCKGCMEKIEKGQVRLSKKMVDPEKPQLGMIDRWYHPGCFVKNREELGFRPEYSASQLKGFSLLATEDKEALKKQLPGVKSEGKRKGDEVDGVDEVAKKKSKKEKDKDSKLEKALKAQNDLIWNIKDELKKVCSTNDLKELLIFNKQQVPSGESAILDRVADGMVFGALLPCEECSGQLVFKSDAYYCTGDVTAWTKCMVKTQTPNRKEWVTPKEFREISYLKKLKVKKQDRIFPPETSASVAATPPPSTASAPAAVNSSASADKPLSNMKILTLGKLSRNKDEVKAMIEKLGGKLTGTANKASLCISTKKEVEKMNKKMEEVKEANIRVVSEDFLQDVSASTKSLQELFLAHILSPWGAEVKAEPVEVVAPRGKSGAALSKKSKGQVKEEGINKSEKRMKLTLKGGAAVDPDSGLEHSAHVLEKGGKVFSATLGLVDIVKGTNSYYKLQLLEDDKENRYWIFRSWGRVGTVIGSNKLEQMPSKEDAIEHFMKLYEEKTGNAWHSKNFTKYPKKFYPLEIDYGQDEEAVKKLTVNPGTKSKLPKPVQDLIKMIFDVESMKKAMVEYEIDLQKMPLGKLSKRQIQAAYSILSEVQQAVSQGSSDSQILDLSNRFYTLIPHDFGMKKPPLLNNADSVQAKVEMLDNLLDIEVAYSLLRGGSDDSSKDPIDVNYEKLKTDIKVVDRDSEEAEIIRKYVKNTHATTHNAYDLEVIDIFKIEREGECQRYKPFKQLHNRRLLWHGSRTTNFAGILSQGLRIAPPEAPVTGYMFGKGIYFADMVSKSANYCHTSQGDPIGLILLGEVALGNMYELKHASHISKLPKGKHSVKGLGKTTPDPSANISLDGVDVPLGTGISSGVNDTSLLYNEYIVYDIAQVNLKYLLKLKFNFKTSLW
Description: The trapped PARP1 forms a toxic lesion and stalls the progress of replication forks. The replication fork collapses in BRCA1/2-deficient cancer cells, and then results in cell death. […] Six cancer cell lines were used in this assay, including two breast cancer cell lines, BRCA1-mutunt SUM149PT-BRCA1mut and SUM149PT-BRCA1rev where deleterious BRCA1 mutation is reverted to form a functional BRCA1, two ovarian cancer cell lines, BRCA1-null UWB1.289 and UWB1.289+BRCA1, a stable cell line in which wild-type BRCA1 function has been restored, and two prostate cancer cell lines, enzalutamide resistant C4-2B/MR which is homologous recombination (HR)-deficient due to Rad51 mutation, and enzalutamide insensitive PC3 which is HR-proficient.

[1] = 1 μM and 2 μM, PC3 and SUM149PT-BRCA1rev cells
[2] = 0.5 μM and 2 μM, PC3 and C4-2B/MR cells

CCN(CC)C(=O)c1ccc(C(=O)NC2C/C(=C\c3ccc(F)c(F)c3)C(=O)/C(=C/c3ccc(F)c(F)c3)C2)c2nn(C)cc12 (stereo not drawn) [JCS003, N^7-(3,5-bis((E)-3,4-difluorobenzylidene)-4-oxocyclohexyl)-N^4,N^4-diethyl-2-methyl-2H-indazole-4,7-dicarboxamide]
Olaparib induced phosphorylation of CHK1 at Ser 345 (ATR; 0.5 μM, 1 μM, 2 μM, PC3 and SUM149PT-BRCA1rev cells): inhibited
Olaparib induced phosphorylation of Rad17 at Ser 645 and CHK1 at Ser 345 (ATR; 2 μM, PC3 cells): inhibited
PARP1 trapped on DNA lesions (PARP1; 0.5 μM, PC3 and C4-2B/MR cells): trapped

CCN(CC)C(=O)c1ccc(C2C/C(=C\c3ccc(F)c(F)c3)C(=O)/C(=C/c3ccc(F)c(F)c3)C2)c2nn(C)cc12 (stereo not drawn) [JCS004, 7-(3,5-bis((E)-3,4-difluorobenzylidene)-4-oxocyclohexyl)-N,N-diethyl-2-methyl-2H-indazole-4-carboxamide]
UV induced phosphorylation of CHK1 at Ser 345 (ATR; [1]): inhibited
PARP1 trapped on DNA lesions (PARP1; [2]): trapped

CCN(CC)C(=O)c1ccc(C2C/C(=C\c3ccc(F)c(F)c3)C(=O)/C(=C/c3ccc(F)c(F)c3)C2)c2[nH]ncc12 (stereo not drawn) [JCS005, 7-(3,5-bis((E)-3,4-difluorobenzylidene)-4-oxocyclohexyl)-N,N-diethyl-1H-indazole-4-carboxamide]
UV induced phosphorylation of CHK1 at Ser 345 (ATR; [1]): inhibited
PARP1 trapped on DNA lesions (PARP1; [2]): trapped

CCN(CC)C(=O)c1ccc(C(=O)NC2C/C(=C\c3ccc(F)c(F)c3)C(=O)/C(=C/c3ccc(F)c(F)c3)C2)c2[nH]ncc12 (stereo not drawn) [JCS006, N^7-(3,5-bis((E)-3,4-difluorobenzylidene)-4-oxocyclohexyl)-N^4,N^4-diethyl-1H-indazole-4,7-dicarboxamide]
Olaparib induced phosphorylation of Rad17 at Ser 645 and CHK1 at Ser 345 (ATR; 2 μM, PC3 cells): inhibited
PARP1 trapped on DNA lesions (PARP1; 0.5 μM, PC3 and C4-2B/MR cells): trapped

O=C1/C(=C/c2ccc(F)c(F)c2)CC(NC(=O)c2ccc(OCCN3CCCC3)cc2)C/C1=C\c1ccc(F)c(F)c1 (stereo not drawn) [JCS008, N-(3,5-Bis((E)-3,4-difluorobenzylidene)-4-oxocyclohexyl)-4-(2-(pyrrolidin-1-yl)ethoxy)benzamide]
Olaparib induced phosphorylation of Rad17 at Ser 645 and CHK1 at Ser 345 (ATR; 1 μM and 2 μM, PC3 and MDA-MB-231 cells): inhibited
PARP1 trapped on DNA lesions (PARP1; 0.5 μM and 2 μM, PC3 cells): trapped
PARP1-trapping potency relative to JC099 (PARP1 in the chromatin-bound fraction) (PARP1; PC3 cells): higher potency in PARP1-trapping

CCCCN(CCCC)CCOc1ccc(C(=O)NC2C/C(=C\c3ccc(F)c(F)c3)C(=O)/C(=C/c3ccc(F)c(F)c3)C2)cc1 (stereo not drawn) [JCS012, N-(3,5-Bis((E)-3,4-difluorobenzylidene)-4-oxocyclohexyl)-4-(2-(dibutylamino)ethoxy)benzamide]
ATR inhibition potency relative to JC099 (OLA- or UV-induced phosphorylation of Rad17 and CHK1) (ATR): greater ATR inhibition potential
PARP1 trapped on DNA lesions (PARP1; 0.5 μM and 2 μM, PC3 cells): trapped
PARP1-trapping potency relative to JC099 (PARP1 in the chromatin-bound fraction) (PARP1; PC3 cells): higher potency in PARP1-trapping

CN1CCN(CC(=O)Nc2ccc(C(=O)NC3C/C(=C\c4ccc(F)c(F)c4)C(=O)/C(=C/c4ccc(F)c(F)c4)C3)cc2)CC1 (stereo not drawn) [JCS050, N-(3,5-bis((E)-3,4-difluorobenzylidene)-4-oxocyclohexyl)-4-(2-(4-methylpiperazin-1-yl)acetamido)benzamide]
ATR inhibition potency relative to JC099 (OLA- or UV-induced phosphorylation of Rad17 and CHK1) (ATR): greater ATR inhibition potential
PARP1 trapped on DNA lesions (PARP1; 0.3 μM, PC3 cells): trapped
PARP1-trapping potency relative to JC099 (PARP1 in the chromatin-bound fraction) (PARP1; PC3 cells): higher potency in PARP1-trapping

CN(C)CCCN(CCCN(C)C)C(=O)Nc1ccc(C(=O)NC2C/C(=C\c3ccc(F)c(F)c3)C(=O)/C(=C/c3ccc(F)c(F)c3)C2)cc1 (stereo not drawn) [JCS058, N-(3,5-bis((E)-3,4-difluorobenzylidene)-4-oxocyclohexyl)-4-(3,3-bis(3-(dimethylamino)propyl)ureido)benzamide]
Olaparib induced phosphorylation of Rad17 at Ser 645 and CHK1 at Ser 345 (ATR; 1 μM and 2 μM, PC3 cells): inhibited
PARP1 trapped on DNA lesions (PARP1; 0.3 μM, PC3 cells): trapped

CCN(CC)C(=O)Nc1ccc(C(=O)NC2C/C(=C\c3ccc(F)c(F)c3)C(=O)/C(=C/c3ccc(F)c(F)c3)C2)cc1 (stereo not drawn) [JCS059, N-(3,5-bis((E)-3,4-difluorobenzylidene)-4-oxocyclohexyl)-4-(3,3-diethylureido)benzamide]
Olaparib induced phosphorylation of Rad17 at Ser 645 and CHK1 at Ser 345 (ATR; 1 μM and 2 μM, PC3 cells): inhibited
PARP1 trapped on DNA lesions (PARP1; 0.3 μM, PC3 cells): trapped

CCCCN(CCCC)C(=O)Nc1ccc(C(=O)NC2C/C(=C\c3ccc(F)c(F)c3)C(=O)/C(=C/c3ccc(F)c(F)c3)C2)cc1 (stereo not drawn) [JCS060, N-(3,5-bis((E)-3,4-difluorobenzylidene)-4-oxocyclohexyl)-4-(3,3-dibutylureido)benzamide]
Olaparib induced phosphorylation of Rad17 at Ser 645 and CHK1 at Ser 345 (ATR; 1 μM and 2 μM, PC3 cells): inhibited
PARP1 trapped on DNA lesions (PARP1; 0.3 μM, PC3 cells): trapped
PARP1-trapping potency relative to JC099 (PARP1 in the chromatin-bound fraction) (PARP1; PC3 cells): higher potency in PARP1-trapping

O=C1/C(=C/c2ccc(F)c(F)c2)CC(NC(=O)c2ccc3cc(OCCN4CCCCC4)ccc3c2)C/C1=C\c1ccc(F)c(F)c1 (stereo not drawn) [JCS097, N-(3,5-Bis((E)-3,4-difluorobenzylidene)-4-oxocyclohexyl)-6-(2-(piperidin-1-yl)ethoxy)-2-naphth-amide]
ATR inhibition potency relative to JC099 (OLA- or UV-induced phosphorylation of Rad17 and CHK1) (ATR): less ATR inhibition potencies

CCN(CC)CCOc1ccc2cc(C(=O)NC3C/C(=C\c4ccc(F)c(F)c4)C(=O)/C(=C/c4ccc(F)c(F)c4)C3)ccc2c1 (stereo not drawn) [JCS098, N-(3,5-Bis((E)-3,4-difluorobenzylidene)-4-oxocyclohexyl)-6-(2-(diethylamino)ethoxy)-2-naphtha-mide]
ATR inhibition potency relative to JC099 (OLA- or UV-induced phosphorylation of Rad17 and CHK1) (ATR): less ATR inhibition potencies

CCN(CC)CCOc1ccc(C(=O)NC2C/C(=C\c3ccc(F)c(F)c3)C(=O)/C(=C/c3ccc(F)c(F)c3)C2)cc1C(C)=O (stereo not drawn) [JCS104, 3-Acetyl-N-(3,5-bis((E)-3,4-difluorobenzylidene)-4-oxocyclohexyl)-4-(2-(diethylamino)ethoxy)-benzamide]
ATR inhibition potency relative to JC099 (OLA- or UV-induced phosphorylation of Rad17 and CHK1) (ATR): less ATR inhibition potencies

CCN(CC)CCOc1ccc(C(=O)NC2C/C(=C\c3ccc(F)c(F)c3)C(=O)/C(=C/c3ccc(F)c(F)c3)C2)c(C)c1 (stereo not drawn) [JCS112, N-(3,5-Bis((E)-3,4-difluorobenzylidene)-4-oxocyclohexyl)-4-(2-(diethylamino)ethoxy)-2-methyl-benzamide]
ATR inhibition potency relative to JC099 (OLA- or UV-induced phosphorylation of Rad17 and CHK1) (ATR): less ATR inhibition potencies

CCN(CC)CCOc1ccc(C(=O)NC2C/C(=C\c3ccc(F)c(F)c3)C(=O)/C(=C/c3ccc(F)c(F)c3)C2)cn1 (stereo not drawn) [JCS115, N-(3,5-Bis((E)-3,4-difluorobenzylidene)-4-oxocyclohexyl)-6-(2-(diethylamino)ethoxy)nicotinamide]
ATR inhibition potency relative to JC099 (OLA- or UV-induced phosphorylation of Rad17 and CHK1) (ATR): less ATR inhibition potencies

O=C1/C(=C/c2ccc(F)c(F)c2)CC(NC(=O)c2ccc(OCCN3CCCCC3)nc2)C/C1=C\c1ccc(F)c(F)c1 (stereo not drawn) [JCS116, N-(3,5-Bis((E)-3,4-difluorobenzylidene)-4-oxocyclohexyl)-6-(2-(piperidin-1-yl)ethoxy)nicotinamide]
ATR inhibition potency relative to JC099 (OLA- or UV-induced phosphorylation of Rad17 and CHK1) (ATR): less ATR inhibition potencies

COCCN(CCOC)CCOc1ccc(C(=O)NC2C/C(=C\c3cc(F)c(F)c(OC)c3)C(=O)/C(=C/c3cc(F)c(F)c(OC)c3)C2)cc1 (stereo not drawn) [JCS153, N-(3,5-Bis((E)-3,4-difluoro-5-methoxybenzylidene)-4-oxocyclohexyl)-4-(2-(bis(2-methoxyethyl)ami-no)ethoxy)benzamide]
ATR inhibition potency relative to JC099 (OLA- or UV-induced phosphorylation of Rad17 and CHK1) (ATR): greater ATR inhibition potential

CCN1CCC[C@H]1CNc1ccc(C(=O)NC2C/C(=C\c3ccc(F)c(F)c3F)C(=O)/C(=C/c3ccc(F)c(F)c3F)C2)cc1 (stereo partly drawn) [JCS157, 4-((((S)-1-Ethylpyrrolidin-2-yl)methyl)amino)-N-(4-oxo-3,5-bis((E)-2,3,4-trifluorobenzylidene)-cyclohexyl)benzamide]
ATR inhibition potency relative to JC099 (OLA- or UV-induced phosphorylation of Rad17 and CHK1) (ATR): less ATR inhibition potencies
